For series [1], the target named is 5-hydroxytryptamine receptor 7 (Rattus norvegicus, UniProt P32305). The series is described as follows: Binding affinity to rat 5-HT7 receptor assessed as inhibition constant.
Series [2] in a line: Drug biodistribution in rat brain incubated for 30 mins by autoradiographic analysis. Format: ADME, organism-based. Particulars: in vivo, 0.5 h.
A short description of series [3]: Lipophilicity, logD of the compound at pH 7.4. In kind it is physicochemical. Particulars: buffer.
The nature of series [4]: Ratio of drug uptake in rat hippocampus to cerebellum by measuring radioactivity at […], iv. Format: ADME, tissue-based. Conditions: in vivo, dose 25-30 mCi.
The target in series [5] is T1, 5-hydroxytryptamine receptor 7 (Homo sapiens, UniProt P34969). As to the kind of experiment: Binding affinity to human recombinant 5-HT7 receptor expressed in CHO cells assessed as inhibition constant. In kind it is cell-based.
The target of series [6] is T2, 5-hydroxytryptamine receptor 1A (Homo sapiens, UniProt P08908).
T2 sequence (P08908 whole entry): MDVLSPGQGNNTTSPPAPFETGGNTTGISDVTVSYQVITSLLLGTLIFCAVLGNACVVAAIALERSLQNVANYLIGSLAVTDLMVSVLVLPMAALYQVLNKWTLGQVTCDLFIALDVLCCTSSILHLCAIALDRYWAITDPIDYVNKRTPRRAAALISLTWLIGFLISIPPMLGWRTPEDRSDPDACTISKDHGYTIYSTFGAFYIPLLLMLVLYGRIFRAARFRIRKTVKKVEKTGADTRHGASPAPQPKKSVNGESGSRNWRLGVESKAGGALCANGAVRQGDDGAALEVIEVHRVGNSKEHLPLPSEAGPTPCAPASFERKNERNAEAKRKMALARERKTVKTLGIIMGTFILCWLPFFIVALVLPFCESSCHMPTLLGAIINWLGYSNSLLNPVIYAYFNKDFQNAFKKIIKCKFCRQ
As to the kind of experiment: Binding affinity to human recombinant 5-HT1A expressed in CHO cells assessed as inhibition constant. In kind it is cell-based.

Series [7] has as its target T3, 5-hydroxytryptamine receptor 2C (Homo sapiens, UniProt P28335).
T3 sequence (P28335 whole entry): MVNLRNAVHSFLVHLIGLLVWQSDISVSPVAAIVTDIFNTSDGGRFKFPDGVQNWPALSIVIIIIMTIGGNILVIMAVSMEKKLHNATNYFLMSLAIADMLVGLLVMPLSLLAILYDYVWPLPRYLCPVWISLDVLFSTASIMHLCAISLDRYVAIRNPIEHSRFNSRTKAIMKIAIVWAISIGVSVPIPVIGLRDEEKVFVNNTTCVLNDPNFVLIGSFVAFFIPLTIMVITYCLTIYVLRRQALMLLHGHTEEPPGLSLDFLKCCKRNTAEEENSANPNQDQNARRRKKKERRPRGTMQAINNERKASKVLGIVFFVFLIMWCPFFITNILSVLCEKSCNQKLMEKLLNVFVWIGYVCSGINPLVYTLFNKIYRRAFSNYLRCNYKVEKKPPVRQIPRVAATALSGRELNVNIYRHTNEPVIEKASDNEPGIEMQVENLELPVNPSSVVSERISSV
The series is described as follows: Binding affinity to human 5-HT2C assessed as inhibition constant.

For series [8], the target named is Serotonin 3 (5-HT3) receptor.
Description: Inhibition of 5HT3 receptor (unknown origin)
A short description of series [9]: Biodistribution in rat assessed as drug uptake measured as percentage of injected dose per gram of tissue relative to control. Conditions: in vivo. In kind it is ADME, organism-based.
The species entered for series [10] is Macaca mulatta. The series is described as follows: Binding affinity to rhesus monkey dorsal anterior cingulate cortex 5-HT1A. Particulars: filed as antagonist, tested as the 18F-labelled form. In kind it is tissue-based.
The species named for series [11] is Macaca mulatta. The series is described as follows: Binding affinity to rhesus monkey mesial temporal cingulate cortex 5-HT1A. Format: tissue-based. Conditions: filed as antagonist, tested as the 18F-labelled form.
Series [12] concerns the target T2, 5-hydroxytryptamine receptor 1A.
Series [13] can be described thus: Drug uptake in rat brain. Format: ADME, tissue-based. Particulars: in vivo.
Series [14] concerns the target T4, 5-hydroxytryptamine receptor 1A (Rattus norvegicus, UniProt P19327).
T4 sequence (P19327 whole entry): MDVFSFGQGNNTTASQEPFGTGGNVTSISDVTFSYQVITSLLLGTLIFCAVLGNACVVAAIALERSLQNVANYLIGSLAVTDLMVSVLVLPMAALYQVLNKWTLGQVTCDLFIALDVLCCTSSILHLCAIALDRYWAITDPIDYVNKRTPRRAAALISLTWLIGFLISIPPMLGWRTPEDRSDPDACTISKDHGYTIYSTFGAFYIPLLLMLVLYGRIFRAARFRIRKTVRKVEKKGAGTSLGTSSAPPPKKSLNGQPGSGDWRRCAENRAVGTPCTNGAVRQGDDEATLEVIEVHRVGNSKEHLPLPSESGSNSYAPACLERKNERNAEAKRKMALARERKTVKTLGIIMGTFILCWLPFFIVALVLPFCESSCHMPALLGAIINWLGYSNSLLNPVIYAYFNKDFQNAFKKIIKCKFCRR
The series is described as follows: Displacement of [3H]-8-OH-DPAT from rat hippocampal membrane 5HT1A receptor by CEREP assay. Format: cell membranes, Hippocampus.

Series [15] has as its target Alpha-1A adrenergic receptor (Homo sapiens) (UniProt P35348). The series is described as follows: Binding affinity to alpha 1A adrenergic receptor (unknown origin). Conditions: filed as antagonist.
Series [16] concerns the target T1, 5-hydroxytryptamine receptor 7. As to the kind of experiment: Binding affinity to human recombinant 5-HT7 receptor assessed as inhibition constant.
Series [17] can be described thus: Displacement of [3H]-8-OH-DPAT from bovine hippocampal tissue 5HT1A receptor by competitive binding assay. In kind it is tissue-based, Bos taurus, Hippocampus.
Series [18] has as its target 5-hydroxytryptamine receptor 2A (Homo sapiens, UniProt P28223). The series is described as follows: Binding affinity to human 5-HT2A transfected in human tsA201 cells assessed as inhibition constant incubated for 2 hrs by scintillation counter analysis. Format: cell-based.
The target of series [19] is 5-hydroxytryptamine receptor 2B (Homo sapiens, UniProt P41595). As to the kind of experiment: Binding affinity to 5-HT2B receptor (unknown origin) assessed as inhibition constant.
In series [20] the target is 5-hydroxytryptamine receptor 1D (Homo sapiens, UniProt P28221). As to the kind of experiment: Binding affinity to 5-HT1D receptor (unknown origin) assessed as inhibition constant.

This is an account of results in ChEMBL document CHEMBL5108009, “Positron Emission Tomography (PET) Imaging Tracers for Serotonin Receptors” (J Med Chem, 2022).

T1 sequence (P34969 whole entry): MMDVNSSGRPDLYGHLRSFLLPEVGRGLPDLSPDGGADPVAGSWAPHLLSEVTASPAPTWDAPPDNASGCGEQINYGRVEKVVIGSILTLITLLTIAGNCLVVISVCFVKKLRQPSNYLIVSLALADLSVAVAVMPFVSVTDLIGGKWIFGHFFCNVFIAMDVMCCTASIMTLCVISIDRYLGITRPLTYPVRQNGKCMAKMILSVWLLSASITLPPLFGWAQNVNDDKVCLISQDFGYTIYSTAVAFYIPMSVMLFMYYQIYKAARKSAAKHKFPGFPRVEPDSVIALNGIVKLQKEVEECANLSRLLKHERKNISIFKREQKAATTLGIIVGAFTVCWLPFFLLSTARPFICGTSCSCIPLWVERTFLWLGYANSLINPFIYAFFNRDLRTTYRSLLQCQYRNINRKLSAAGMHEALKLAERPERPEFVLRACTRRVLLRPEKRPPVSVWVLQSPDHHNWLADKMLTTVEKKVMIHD
5-hydroxytryptamine receptor 7 (Rattus norvegicus, UniProt P32305), sequence (P32305 whole entry): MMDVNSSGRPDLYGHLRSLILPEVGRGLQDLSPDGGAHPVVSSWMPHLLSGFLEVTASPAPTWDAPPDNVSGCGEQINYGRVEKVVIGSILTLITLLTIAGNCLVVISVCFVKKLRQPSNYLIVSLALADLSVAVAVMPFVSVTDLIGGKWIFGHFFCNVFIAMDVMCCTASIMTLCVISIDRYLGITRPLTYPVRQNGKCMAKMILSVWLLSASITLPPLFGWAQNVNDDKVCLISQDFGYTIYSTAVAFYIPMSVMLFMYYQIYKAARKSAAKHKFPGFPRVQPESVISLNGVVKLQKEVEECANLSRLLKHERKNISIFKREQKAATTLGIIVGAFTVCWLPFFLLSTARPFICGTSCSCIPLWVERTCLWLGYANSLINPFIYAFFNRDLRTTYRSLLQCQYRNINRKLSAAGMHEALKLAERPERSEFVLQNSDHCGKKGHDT
5-hydroxytryptamine receptor 2B, sequence (P41595 whole entry): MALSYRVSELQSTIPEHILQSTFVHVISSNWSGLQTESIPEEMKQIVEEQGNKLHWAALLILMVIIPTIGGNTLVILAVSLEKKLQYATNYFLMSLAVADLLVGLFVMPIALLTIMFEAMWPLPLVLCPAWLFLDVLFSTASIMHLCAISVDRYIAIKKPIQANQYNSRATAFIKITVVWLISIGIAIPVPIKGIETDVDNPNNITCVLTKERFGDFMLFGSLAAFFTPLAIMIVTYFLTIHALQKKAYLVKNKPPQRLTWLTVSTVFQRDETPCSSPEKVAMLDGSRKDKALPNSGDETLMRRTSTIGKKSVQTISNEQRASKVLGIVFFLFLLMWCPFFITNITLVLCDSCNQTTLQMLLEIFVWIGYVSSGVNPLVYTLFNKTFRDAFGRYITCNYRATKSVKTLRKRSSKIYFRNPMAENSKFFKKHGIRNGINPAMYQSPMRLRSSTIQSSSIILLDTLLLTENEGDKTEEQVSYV
5-hydroxytryptamine receptor 2A, sequence (P28223 whole entry): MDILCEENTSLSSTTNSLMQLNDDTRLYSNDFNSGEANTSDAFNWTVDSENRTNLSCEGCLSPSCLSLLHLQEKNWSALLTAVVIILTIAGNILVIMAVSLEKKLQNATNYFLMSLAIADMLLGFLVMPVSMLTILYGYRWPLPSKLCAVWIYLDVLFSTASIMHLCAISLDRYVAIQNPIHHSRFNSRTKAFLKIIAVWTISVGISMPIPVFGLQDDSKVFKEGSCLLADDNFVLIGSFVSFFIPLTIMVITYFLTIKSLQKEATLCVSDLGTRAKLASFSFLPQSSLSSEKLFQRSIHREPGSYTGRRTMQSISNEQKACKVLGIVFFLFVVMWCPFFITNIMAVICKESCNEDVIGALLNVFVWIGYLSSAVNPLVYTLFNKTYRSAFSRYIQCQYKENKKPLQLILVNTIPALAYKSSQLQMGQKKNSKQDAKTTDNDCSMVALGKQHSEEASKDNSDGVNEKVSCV
5-hydroxytryptamine receptor 1D, sequence (P28221 whole entry): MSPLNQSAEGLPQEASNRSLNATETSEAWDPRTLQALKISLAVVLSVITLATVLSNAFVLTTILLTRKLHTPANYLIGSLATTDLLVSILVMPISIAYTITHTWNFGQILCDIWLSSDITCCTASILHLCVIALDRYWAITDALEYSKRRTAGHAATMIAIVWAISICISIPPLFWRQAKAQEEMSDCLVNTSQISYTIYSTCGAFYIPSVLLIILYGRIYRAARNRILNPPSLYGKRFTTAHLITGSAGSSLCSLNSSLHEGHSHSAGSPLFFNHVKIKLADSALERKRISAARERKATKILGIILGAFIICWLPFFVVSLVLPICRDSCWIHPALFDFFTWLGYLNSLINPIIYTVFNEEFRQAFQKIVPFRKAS
Alpha-1A adrenergic receptor (Homo sapiens), sequence (P35348 whole entry): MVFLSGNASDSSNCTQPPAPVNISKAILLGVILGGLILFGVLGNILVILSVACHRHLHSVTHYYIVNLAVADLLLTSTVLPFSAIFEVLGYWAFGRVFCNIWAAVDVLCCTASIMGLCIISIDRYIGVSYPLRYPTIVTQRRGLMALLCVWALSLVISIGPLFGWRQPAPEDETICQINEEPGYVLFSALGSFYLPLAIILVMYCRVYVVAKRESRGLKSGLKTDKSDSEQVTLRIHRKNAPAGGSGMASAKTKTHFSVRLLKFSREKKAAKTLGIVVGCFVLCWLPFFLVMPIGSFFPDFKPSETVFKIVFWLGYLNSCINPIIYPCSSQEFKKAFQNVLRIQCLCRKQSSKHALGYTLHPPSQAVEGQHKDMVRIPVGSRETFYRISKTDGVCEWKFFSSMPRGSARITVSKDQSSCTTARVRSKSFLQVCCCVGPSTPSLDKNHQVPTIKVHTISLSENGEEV

As to `CC1(CCCCN2CCN(c3cccc(OCCF)c3)CC2)C(=O)Nc2ccccc21` (configuration not stated), the inhibitory constant (Ki) in series [1] came to 5.6 nM.
`O=S(=O)(c1ccc([18F])cc1)C1CCN(CCc2ccc(F)cc2F)CC1`: the Drug uptake in [2] is listed as above 80%.
Turning to `CC1(NC(=O)c2ccc(N)cc2)CCN(CCCOc2ccc([18F])cc2)CC1`, the logD in series [3] amounted to 2.53.
On to `O=C(C1CCCCC1)N(CCN1CCN(c2ccccc2OCCC[18F])CC1)c1ccccn1`, for which, in [4], the Ratio amounted to 7.5.
With `COc1ccccc1N1CCN(CCC[C@H]2CCCN2S(=O)(=O)c2ccc(F)cc2)CC1`, the results for the Ki in [5] and in series [6] were 2.6 nM and 6.8 nM, respectively.
In the case of `COc1c(OCCF)cccc1[C@H](O)C1CCN(CCc2ccc(F)cc2)CC1`, the Ki in [7] was found to be 71 nM.
In series [8], `CN1CCN(c2ccc3ccccc3n2)CC1` displayed an IC50 of 4.7 nM.
The molecule `COc1cn2cccc2c(N2CCN(Cc3ccc(F)cc3)CC2)n1` gave an IC50 in [8] of 6.6 nM.
For the molecule `COc1ccccc1N1CCN(CCCCn2ccnc2S[11CH3])CC1`, in series [9], the Drug uptake is on record as 1.14 % ID/g.
`COc1ccccc1N1CCN(CCN(c2ccccn2)C(=O)[C@H]2CC[C@H](CF)CC2)CC1`: the Bmax in the series filed under Macaca mulatta [10] came to 36 pmol/mL; in the series filed under Macaca mulatta [11], 42 pmol/mL.
`COc1ccc2cccc(N3CCN(CCNC(=O)c4ccc([18F])cc4)CC3)c2c1`: the Ki in [12] came out at 0.98 nM. Further, the SUV in series [13] is 2.
For the molecule `NC(=O)c1ccc(F)c2c1CC(N(C1CCC1)C1CCC1)CO2` (configuration not stated), in series [3], the logD came to 2.5. The same molecule showed a Ki in series [12] of 0.6 nM.
Regarding `COc1ccccc1N1CCN(CCC[C@H]2CCCN2S(=O)(=O)c2ccccc2F)CC1`, the figures for the Ki in [5] and in [6] were 1.9 nM and 4.1 nM, respectively.
In [14], `COc1ccccc1N1CCN(CCCCn2ccnc2SC)CC1` returned an IC50 of 0.58 nM. In [15], this molecule returned a K of 3 nM.
With `COc1cccc(N2CCN(CCCCC3C(=O)Nc4ccccc43)CC2)c1` (configuration not stated), the Ki in series [16] is 2.6 nM.
On the same count and under the same terms, the figure for `Cc1ccc(N2CCN(CCCCC3C(=O)Nc4ccccc43)CC2)cc1` (configuration not stated) is 1.1 nM.
`[11CH3]O[C@H]1CC[C@@H](C(=O)N(CCN2CCN(c3ccccc3O)CC2)c2ccccn2)CC1` showed a Ki in [17] of 24 nM.
On to `COc1cc(Br)c(OCC[18F])cc1CCNCc1ccccc1OC`, for which the Ki in series [18] is below 1.2 nM.
Take `COc1ccccc1N1CCN(CC[C@@H](C(=O)N2CCCCCC2)c2ccccc2)CC1`: the Ki in series [12] stood at 0.6 nM; in series [19], 7.2 nM; in series [20], 9.5 nM.
